{"source": "ChEMBL document CHEMBL1165930", "about": "“The anticancer activity of 3- and 10-bromofascaplysins is mediated by caspase-8, -9, -3-dependent apoptosis” (Bioorg Med Chem, 2010)", "key": {"[1]": {"test_system": "HL-60", "assay": "Cytotoxicity against human HL60 cells after 22 hrs by MTS assay", "format": "functional, cell-based", "conditions": "HL-60, 22 h"}, "[2]": {"test_system": "THP-1", "assay": "Induction of apoptosis in human THP1 cells assessed as early apoptotic cells at 2000 nM after 24 hrs by FITC-conjugated annexin V and propidium iodide staining-based flow cytometry", "format": "functional"}, "[3]": {"test_system": "HL-60", "assay": "Induction of apoptosis in human HL60 cells assessed as decrease in procaspase-3 level at 500 nM after 24 hrs by Western blot analysis", "format": "functional, cell-based"}, "[4]": {"test_system": "HL-60", "assay": "Induction of apoptosis in human HL60 cells assessed as total apoptotic cells at 50 to 100 nM after 24 hrs by FITC-conjugated annexin V and propidium iodide staining-based flow cytometry", "format": "functional"}, "[5]": {"assay": "Effect on proliferation of p53-expressing mouse JB6 Cl41 cells assessed as cell viability at 375 to 500 nM after 6 hrs", "format": "functional"}, "[6]": {"test_system": "HL-60", "assay": "Selectivity ratio of INCC50 for human HL60 cells to IC50 for human HL60 cells", "format": "functional"}, "[7]": {"assay": "Effect on EGF-stimulated proliferation of ERK2-expressing mouse JB6 Cl41 cells assessed as cell death at 250 nM after 22 hrs by MTS assay", "format": "functional"}, "[8]": {"test_system": "HL-60", "assay": "Induction of apoptosis in human HL60 cells assessed as early apoptotic cells at 500 to 1000 nM after 24 hrs by FITC-conjugated annexin V and propidium iodide staining-based flow cytometry", "format": "functional"}, "[9]": {"test_system": "THP-1", "assay": "Anticancer activity in human THP1 cells assessed as inhibition of colony formation by anchorage-independent soft agar assay", "format": "functional"}, "[10]": {"test_system": "THP-1", "assay": "Selectivity ratio of INCC50 for human THP1 cells to IC50 for human THP1 cells", "format": "functional"}, "[11]": {"test_system": "THP-1", "assay": "Induction of apoptosis in human THP1 cells assessed as viable cells at 1000 nM after 24 hrs by FITC-conjugated annexin V and propidium iodide staining-based flow cytometry", "format": "functional", "conditions": "THP-1, 24 h, read-out: Activity"}, "[12]": {"test_system": "HL-60", "assay": "Induction of apoptosis in human HL60 cells assessed as decrease in PARP level at 500 nM after 24 hrs by Western blot analysis", "format": "functional, cell-based"}, "[13]": {"test_system": "THP-1", "assay": "Induction of apoptosis in human THP1 cells assessed as early apoptotic cells at 500 nM after 24 hrs by FITC-conjugated annexin V and propidium iodide staining-based flow cytometry", "format": "functional"}, "[14]": {"test_system": "THP-1", "assay": "Induction of apoptosis in human THP1 cells assessed as viable cells at 2000 nM after 24 hrs by FITC-conjugated annexin V and propidium iodide staining-based flow cytometry", "format": "functional", "conditions": "THP-1, 24 h, read-out: Activity"}, "[15]": {"test_system": "THP-1", "assay": "Induction of apoptosis in human THP1 cells assessed as late apoptotic cells at 1000 nM after 24 hrs by FITC-conjugated annexin V and propidium iodide staining-based flow cytometry", "format": "functional"}, "[16]": {"test_system": "HeLa", "assay": "Cytotoxicity against human HeLa cells after 22 hrs by MTS assay", "format": "functional, cell-based"}, "[17]": {"test_system": "SK-MEL-28", "assay": "Selectivity ratio of INCC50 for human SK-MEL-28 cells to IC50 for human SK-MEL-28 cells", "format": "functional"}, "[18]": {"assay": "Inhibition of EGF-stimulated colony formation in mouse JB6 Cl41 cells by anchorage-independent soft agar assay", "format": "functional"}, "[19]": {"test_system": "HL-60", "assay": "Induction of apoptosis in human HL60 cells assessed as decrease in Bid protein level at 500 nM after 24 hrs by Western blot analysis", "format": "functional, cell-based"}, "[20]": {"target": "Transcription factor Jun (Mus musculus) (UniProt P05627)", "sequence (P05627 whole entry)": "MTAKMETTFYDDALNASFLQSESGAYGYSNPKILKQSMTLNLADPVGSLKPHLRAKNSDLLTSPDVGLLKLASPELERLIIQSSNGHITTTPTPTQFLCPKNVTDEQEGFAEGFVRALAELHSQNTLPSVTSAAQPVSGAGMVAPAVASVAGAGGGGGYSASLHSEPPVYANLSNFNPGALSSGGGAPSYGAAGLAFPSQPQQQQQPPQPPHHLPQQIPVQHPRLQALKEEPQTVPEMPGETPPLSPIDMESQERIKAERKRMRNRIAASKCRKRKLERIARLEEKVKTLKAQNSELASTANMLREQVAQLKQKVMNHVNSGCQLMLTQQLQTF", "assay": "Induction of AP1-mediated transcriptional activity in mouse JB6 Cl41 cells at 125 to 250 nM after 24 hrs by luciferase reporter gene assay relative to control", "format": "cell-based"}, "[21]": {"test_system": "HL-60", "assay": "Induction of apoptosis in human HL60 cells assessed as early apoptotic cells at 50 nM after 24 hrs by FITC-conjugated annexin V and propidium iodide staining-based flow cytometry", "format": "functional"}, "[22]": {"test_system": "THP-1", "assay": "Induction of apoptosis in human THP1 cells assessed as non-viable necrotic cells at 500 nM after 24 hrs by FITC-conjugated annexin V and propidium iodide staining-based flow cytometry", "format": "functional"}, "[23]": {"test_system": "THP-1", "assay": "Induction of apoptosis in human THP1 cells assessed as viable cells at 500 nM after 24 hrs by FITC-conjugated annexin V and propidium iodide staining-based flow cytometry", "format": "functional", "conditions": "THP-1, 24 h, read-out: Activity"}, "[24]": {"test_system": "THP-1", "assay": "Induction of apoptosis in human THP1 cells assessed as late apoptotic cells at 2000 nM after 24 hrs by FITC-conjugated annexin V and propidium iodide staining-based flow cytometry", "format": "functional"}, "[25]": {"test_system": "SK-MEL-28", "assay": "Cytotoxicity against human SK-MEL-28 cells after 22 hrs by MTS assay", "format": "functional, cell-based", "conditions": "SK-MEL-28, 22 h"}, "[26]": {"test_system": "HL-60", "assay": "Induction of apoptosis in human HL60 cells assessed as decrease in procaspase-9 level at 250 nM after 24 hrs by Western blot analysis", "format": "functional, cell-based"}, "[27]": {"target": "Transcription factor Jun (Mus musculus) (UniProt P05627)", "assay": "Induction of AP1-mediated transcriptional activity in mouse JB6 Cl41 cells at 15 to 500 nM by luciferase reporter gene assay", "format": "cell-based"}, "[28]": {"assay": "Effect on EGF-stimulated proliferation of JNK1-expressing mouse JB6 Cl41 cells assessed as cell death at 250 nM after 22 hrs by MTS assay", "format": "functional"}, "[29]": {"assay": "Effect on EGF-stimulated proliferation of ERK2-expressing mouse JB6 Cl41 cells assessed as cell viability at 125 nM after 22 hrs by MTS assay", "format": "functional", "conditions": "JB6 Cl41, 22 h, read-out: Activity"}, "[30]": {"test_system": "JB6 Cl41", "assay": "Effect on EGF-stimulated proliferation of mouse JB6 Cl41 cells at 125 nM after 22 hrs by MTS assay", "format": "functional, cell-based"}, "[31]": {"target": "Cellular tumor antigen p53 (Mus musculus) (UniProt P02340)", "sequence (P02340 whole entry)": "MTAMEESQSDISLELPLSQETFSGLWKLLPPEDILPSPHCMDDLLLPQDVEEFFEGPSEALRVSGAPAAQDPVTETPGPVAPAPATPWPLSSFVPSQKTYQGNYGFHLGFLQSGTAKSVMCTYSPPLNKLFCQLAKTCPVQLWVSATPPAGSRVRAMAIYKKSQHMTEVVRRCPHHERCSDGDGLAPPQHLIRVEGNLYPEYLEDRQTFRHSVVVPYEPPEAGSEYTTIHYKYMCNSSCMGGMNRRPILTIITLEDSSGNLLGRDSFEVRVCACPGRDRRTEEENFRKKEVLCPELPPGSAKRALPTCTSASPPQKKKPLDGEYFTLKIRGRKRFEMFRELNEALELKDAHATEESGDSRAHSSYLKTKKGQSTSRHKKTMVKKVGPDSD", "assay": "Inhibition of p53-mediated transcriptional activity in mouse JB6 Cl41 cells at 375 to 500 nM after 6 hrs by luciferase reporter gene assay relative to control", "format": "cell-based"}, "[32]": {"test_system": "THP-1", "assay": "Induction of apoptosis in human THP1 cells assessed as non-viable necrotic cells at 1000 nM after 24 hrs by FITC-conjugated annexin V and propidium iodide staining-based flow cytometry", "format": "functional"}}, "note": "Activity calls are given as the source filed them. No cut-off for these calls is given here.", "data": [{"smiles": "O=C1c2ccc(Br)cc2-[n+]2ccc3c([nH]c4ccccc43)c21.[Cl-]", "values": [{"measurement": "IC50", "setting": "[1]", "result": 549, "unit": "nM"}, {"measurement": "Activity", "setting": "[2]", "result": 25.8, "unit": "%"}, {"measurement": "inhibition", "setting": "[3]", "result": "Active"}, {"measurement": "Activity", "setting": "[4]", "result": 20, "unit": "%"}, {"measurement": "Activity", "setting": "[5]", "result": 50, "unit": "%"}, {"measurement": "Selectivity ratio", "setting": "[6]", "result": 5.3}, {"measurement": "Activity", "setting": "[7]", "result": 100, "unit": "%"}, {"measurement": "Activity", "setting": "[8]", "result": 20, "unit": "%"}, {"measurement": "INCC50", "setting": "[9]", "result": 59.7, "unit": "nM"}, {"measurement": "Selectivity ratio", "setting": "[10]", "result": 8.7}, {"measurement": "viability at 1 µM", "setting": "[11]", "result": 40.9, "unit": "%"}, {"measurement": "inhibition", "setting": "[12]", "result": "Active"}, {"measurement": "Activity", "setting": "[13]", "result": 13, "unit": "%"}, {"measurement": "viability at 2 µM", "setting": "[14]", "result": 25.8, "unit": "%"}, {"measurement": "Activity", "setting": "[15]", "result": 23.2, "unit": "%"}, {"measurement": "IC50", "setting": "[16]", "result": 337, "unit": "nM"}, {"measurement": "Selectivity ratio", "setting": "[17]", "result": 4.8}, {"measurement": "INCC50", "setting": "[18]", "result": 106.4, "unit": "nM"}, {"measurement": "inhibition", "setting": "[19]", "result": "Active"}, {"measurement": "fold change (FC)", "setting": "[20]", "result": 1.5}, {"measurement": "Activity", "setting": "[21]", "result": 5, "unit": "%"}, {"measurement": "Activity", "setting": "[22]", "result": 6.4, "unit": "%"}, {"measurement": "viability at 0.5 µM", "setting": "[23]", "result": 68.2, "unit": "%"}, {"measurement": "Activity", "setting": "[24]", "result": 25.5, "unit": "%"}, {"measurement": "IC50", "setting": "[25]", "result": 785, "unit": "nM"}, {"measurement": "inhibition", "setting": "[26]", "result": "Active"}, {"measurement": "Activity", "setting": "[27]", "result": "tde"}, {"measurement": "Activity", "setting": "[28]", "result": 100, "unit": "%"}, {"measurement": "viability at 0.125 µM", "setting": "[29]", "result": 30, "unit": "%"}, {"measurement": "Activity", "setting": "[30]", "result": "inactive"}, {"measurement": "inhibition", "setting": "[31]", "result": 30, "unit": "%"}, {"measurement": "Activity", "setting": "[32]", "result": 18, "unit": "%"}]}]}
